Laboratory results as given in patent US11793849B2, “Method of Chinese herbal medicine extract used for treating multiple diseases caused by drug resistant bacteria infection” (priority 2016, dated 2023).
In brackets after ≈: the same amount, converted by molar mass. Where two headings read alike, the source gives them in different places.

Legend:
MDRPA = assay: Checkerboard assay (combined-use MIC, FIC); format: cell-based, Pseudomonas aeruginosa; conditions: for FIC, all strains / MIC50 of the antibiotic after combined use / MIC90 of the antibiotic after combined use / reduction of the antibiotic's MIC50 vs single use / reduction of the antibiotic's MIC90 vs single use / share of strains with FIC ≤ 0.5: 20 MDRPAs; for combined-use MIC: EA (P. clypearia water extract) combined with LVX
Procedure: Test methods of the sensibilization effects of the test product to similar antibiotics: it is operated by referring to a checkerboard assay recommended by NCCLS.
The checkerboard assay is performed in a 96-pore sterile culture plate.
Calculation of a Fractional Inhibitory Concentration (FIC): FIC=S20b combined-use MIC/S20b single-use MIC+antibiotic combined-use MIC/antibiotic single-use MIC. By calculating the FIC, the combined antibacterial interaction between the EA and the antibiotic is evaluated, with synergistic effect for FIC≤0.5, additive effect for 0.5<FIC≤1, indifferent effect for 1<FIC≤2 and antagonistic effect for FIC>2. According to a sterile growth pore, the optimum concentration ratio between the EA and the antibiotic is founded out. At last, the effect of the EA to strengthen the efficacy of the antibiotic is evaluated.

ATCC27853 = assay: MIC determination, control strain; format: cell-based
Procedure: Determination methods of a Minimal Inhibitory Concentration (MIC) and a Minimum Bactericidal Concentration (MBC) of a test product: the MIC and the MBC of the Pithecellobium clypearia Benth water or ethanol extract to the MDRAB are determined by a microdilution broth method.

MDRAB = assay: MIC determination, microdilution broth method; format: cell-based, Acinetobacter baumannii; conditions: Acinetobacter baumannii
Procedure: Determination methods of a Minimal Inhibitory Concentration (MIC) and a Minimum Bactericidal Concentration (MBC) of a test product: the MIC and the MBC of the Pithecellobium clypearia Benth water or ethanol extract to the MDRAB are determined by a microdilution broth method. And it is operated by referring to the microdilution broth method recommended by National Committee for Clinical Laboratory Standards (NCCLS).

[1] = antibiotic with 10% ethanol extract
[2] = antibiotic with 60% ethanol extract
[3] = antibiotic with 95% ethanol extract
[4] = antibiotic with EA (water extract)

## C[C@H]1COc2c(N3CCN(C)CC3)c(F)cc3c(=O)c(C(=O)O)cn1c23 [LVX, Levofloxacin]
MDRPA; [1]
  FIC, all strains: ≤ 2
  MIC50 of the antibiotic after combined use: 1 µg/mL
  MIC90 of the antibiotic after combined use: 4 µg/mL
  reduction of the antibiotic's MIC50 vs single use: 75%
  reduction of the antibiotic's MIC90 vs single use: 87.5%
  share of strains with FIC ≤ 0.5: 15%
MDRPA; [2]
  MIC50 of the antibiotic after combined use: 1 µg/mL
  MIC90 of the antibiotic after combined use: 8 µg/mL
  reduction of the antibiotic's MIC50 vs single use: 75%
  reduction of the antibiotic's MIC90 vs single use: 75%
  share of strains with FIC ≤ 0.5: 10%
MDRPA; [3]
  FIC, all strains: ≤ 2
  MIC50 of the antibiotic after combined use: 1 µg/mL
  MIC90 of the antibiotic after combined use: 4 µg/mL
  reduction of the antibiotic's MIC50 vs single use: 75%
  reduction of the antibiotic's MIC90 vs single use: 87.5%
  share of strains with FIC ≤ 0.5: 10%
MDRPA; [4]
  FIC, all strains: ≤ 2
  MIC50 of the antibiotic after combined use: 1 µg/mL
  MIC90 of the antibiotic after combined use: 8 µg/mL
  reduction of the antibiotic's MIC50 vs single use: 75%
  reduction of the antibiotic's MIC90 vs single use: 75%
  share of strains with FIC ≤ 0.5: 15%
MDRPA; strain P1
  combined-use MIC: 4 µg/mL
MDRPA; strain P2
  combined-use MIC: 0.03125 µg/mL
MDRPA; strain P3
  combined-use MIC: 0.03125 µg/mL
MDRPA; strain P4
  combined-use MIC: 4 µg/mL
MDRPA; strain P5
  combined-use MIC: 0.03125 µg/mL
MDRPA; strain P6
  combined-use MIC: 0.03125 µg/mL
MDRPA; strain P7
  combined-use MIC: 0.03125 µg/mL
MDRPA; strain P8
  combined-use MIC: 0.03125 µg/mL
MDRPA; strain P9
  combined-use MIC: 2 µg/mL
MDRPA; strain P10
  combined-use MIC: 32 µg/mL
MDRPA; strain P11
  combined-use MIC: 1 µg/mL
MDRPA; strain P12
  combined-use MIC: 0.5 µg/mL
MDRPA; strain P13
  combined-use MIC: 1 µg/mL
MDRPA; strain P14
  combined-use MIC: 1 µg/mL
MDRPA; strain P15
  combined-use MIC: 1 µg/mL
MDRPA; strain P16
  combined-use MIC: 2 µg/mL
MDRPA; strain P17
  combined-use MIC: 4 µg/mL
MDRPA; strain P18
  combined-use MIC: 8 µg/mL
MDRPA; strain P19
  combined-use MIC: 4 µg/mL
MDRPA; strain P20
  combined-use MIC: 1 µg/mL
ATCC27853; EA=10% ethanol extract, read-out: MIC
  MIC: 1 µg/mL (≈ 2.77 µM)
ATCC27853; EA=60% ethanol extract, read-out: MIC
  MIC: 1 µg/mL (≈ 2.77 µM)
ATCC27853; EA=95% ethanol extract, read-out: MIC
  MIC: 1 µg/mL (≈ 2.77 µM)
ATCC27853; EA=P. clypearia 10% ethanol extract, read-out: MIC (single use)
  MIC: 1 µg/mL (≈ 2.77 µM)
ATCC27853; EA=P. clypearia water extract, read-out: MIC (single use)
  MIC: 1 µg/mL (≈ 2.77 µM)
ATCC27853; EA=water extract, read-out: MIC
  MIC: 1 µg/mL (≈ 2.77 µM)
ATCC27853; single use, EA = 60% ethanol extract, read-out: MIC
  MIC: 1 µg/mL (≈ 2.77 µM)
ATCC27853; single use, EA = 95% ethanol extract, read-out: MIC
  MIC: 1 µg/mL (≈ 2.77 µM)
MDRAB; strain A1, EA=60% ethanol extract, read-out: MIC
  MIC: 0.5 µg/mL (≈ 1.38 µM)
MDRAB; strain A1, EA=95% ethanol extract, read-out: MIC
  MIC: 0.5 µg/mL (≈ 1.38 µM)
MDRAB; strain A1, EA=P. clypearia 95% ethanol extract, read-out: single-use MIC
  MIC: 0.5 µg/mL (≈ 1.38 µM)
MDRAB; strain A1, single use, EA=10% ethanol extract, read-out: MIC
  MIC: 0.5 µg/mL (≈ 1.38 µM)
MDRAB; strain A1, single use, EA=water extract, read-out: MIC
  MIC: 0.5 µg/mL (≈ 1.38 µM)
MDRAB; strain A2, EA=60% ethanol extract, read-out: MIC
  MIC: 16 µg/mL (≈ 44.3 µM)
MDRAB; strain A2, EA=95% ethanol extract, read-out: MIC
  MIC: 16 µg/mL (≈ 44.3 µM)
MDRAB; strain A2, EA=P. clypearia 95% ethanol extract, read-out: single-use MIC
  MIC: 16 µg/mL (≈ 44.3 µM)
MDRAB; strain A2, single use, EA=10% ethanol extract, read-out: MIC
  MIC: 16 µg/mL (≈ 44.3 µM)
MDRAB; strain A2, single use, EA=water extract, read-out: MIC
  MIC: 16 µg/mL (≈ 44.3 µM)
MDRAB; strain A3, EA=60% ethanol extract, read-out: MIC
  MIC: 4 µg/mL (≈ 11.1 µM)
MDRAB; strain A3, EA=95% ethanol extract, read-out: MIC
  MIC: 4 µg/mL (≈ 11.1 µM)
MDRAB; strain A3, EA=P. clypearia 95% ethanol extract, read-out: single-use MIC
  MIC: 16 µg/mL (≈ 44.3 µM)
MDRAB; strain A3, single use, EA=10% ethanol extract, read-out: MIC
  MIC: 4 µg/mL (≈ 11.1 µM)
MDRAB; strain A4, EA=60% ethanol extract, read-out: MIC
  MIC: 0.5 µg/mL (≈ 1.38 µM)
MDRAB; strain A4, EA=95% ethanol extract, read-out: MIC
  MIC: 0.5 µg/mL (≈ 1.38 µM)
MDRAB; strain A4, EA=P. clypearia 95% ethanol extract, read-out: single-use MIC
  MIC: 0.5 µg/mL (≈ 1.38 µM)
MDRAB; strain A4, single use, EA=10% ethanol extract, read-out: MIC
  MIC: 0.5 µg/mL (≈ 1.38 µM)
MDRAB; strain A4, single use, EA=water extract, read-out: MIC
  MIC: 0.5 µg/mL (≈ 1.38 µM)
MDRAB; strain A5, EA=60% ethanol extract, read-out: MIC
  MIC: 4 µg/mL (≈ 11.1 µM)
MDRAB; strain A5, EA=95% ethanol extract, read-out: MIC
  MIC: 4 µg/mL (≈ 11.1 µM)
MDRAB; strain A5, single use, EA=10% ethanol extract, read-out: MIC
  MIC: 4 µg/mL (≈ 11.1 µM)
MDRAB; strain A5, single use, EA=water extract, read-out: MIC
  MIC: 4 µg/mL (≈ 11.1 µM)
MDRAB; strain A6, EA=60% ethanol extract, read-out: MIC
  MIC: 8 µg/mL (≈ 22.1 µM)
MDRAB; strain A6, EA=95% ethanol extract, read-out: MIC
  MIC: 8 µg/mL (≈ 22.1 µM)
MDRAB; strain A6, EA=P. clypearia 95% ethanol extract, read-out: single-use MIC
  MIC: 8 µg/mL (≈ 22.1 µM)
MDRAB; strain A6, single use, EA=10% ethanol extract, read-out: MIC
  MIC: 8 µg/mL (≈ 22.1 µM)
MDRAB; strain A6, single use, EA=water extract, read-out: MIC
  MIC: 8 µg/mL (≈ 22.1 µM)
MDRAB; strain A7, EA=60% ethanol extract, read-out: MIC
  MIC: 8 µg/mL (≈ 22.1 µM)
MDRAB; strain A7, EA=95% ethanol extract, read-out: MIC
  MIC: 8 µg/mL (≈ 22.1 µM)
MDRAB; strain A7, EA=P. clypearia 95% ethanol extract, read-out: single-use MIC
  MIC: 8 µg/mL (≈ 22.1 µM)
MDRAB; strain A7, single use, EA=10% ethanol extract, read-out: MIC
  MIC: 8 µg/mL (≈ 22.1 µM)
